Results taken from ChEMBL document CHEMBL1156464, “Unique antiviral mechanism discovered in anti-hepatitis B virus research with a natural product analogue” (Proc Natl Acad Sci U S A, 2007).
The source made the active and inactive calls. The calls are words filed in the database; no cut-off is given here.

Legend:
[1] = Down regulation of HNH4-alpha in human HepG2(2.2.15) cells expressing HBV at 0.3 uM by Western blotting; type: functional, cell-based
HepG2 [2] = experiment: Down regulation of HNH4-alpha in human HepG2 cells expressing HBV at 0.3 uM by Western blotting; type: functional, cell-based
[3] = Down regulation of HNH3-beta in human HepG2(2.2.15) cells expressing HBV at 0.3 uM by Western blotting; type: functional, cell-based
HepG2 [4] = experiment: Down regulation of HNH3-beta in human HepG2 cells expressing HBV at 0.3 uM by Western blotting; type: functional, cell-based
[5] = Down regulation of HNH3-alpha mRNA in human HepG2(2.2.15) cells expressing HBV at 0.3 uM by Northern blotting; type: functional, cell-based
Hepatitis B virus [6] = experiment: Decrease in HBV RNA in human HepG2 cells at 2 uM after 18 to 24 hrs by time course study; type: functional, organism-based
Hepatitis B virus [7] = experiment: Decrease in HBV protein level in human HepG2 cells at 2 uM after 18 to 24 hrs by time course study; type: functional, organism-based
Hepatitis C virus = experiment: Antiviral activity against hepatitis C virus; type: functional, organism-based, Hepacivirus hominis
[8] = tested on: Human immunodeficiency virus; experiment: Antiviral activity against HIV; type: functional, organism-based; conditions: Human immunodeficiency virus 1
Human alphaherpesvirus 1 = experiment: Antiviral activity against HSV1; type: functional, organism-based
Human gammaherpesvirus 4 = experiment: Antiviral activity against Epstein-Barr virus; type: functional, organism-based
human papillomavirus 11 = experiment: Antiviral activity against human papilloma virus 11; type: functional, organism-based
Hepatitis B virus [9] = experiment: Antiviral activity against HBV assessed as inhibition of viral replication; type: functional, organism-based
Hepatitis B virus [10] = experiment: Decrease in HBV DNA level in human HepG2 cells at 2 uM after 48 hrs by time course study; type: functional, organism-based
Hepatitis B virus [11] = experiment: Antiviral activity against HBV in ayw wild type HepG2(2.2.15) cells assessed as inhibition of viral DNA replication; type: functional, organism-based
Hepatitis B virus [12] = experiment: Antiviral activity against HBV in adriamycin-resistant wild type HepW10 cells assessed as inhibition of viral DNA replication; type: functional, organism-based
Hepatitis B virus [13] = experiment: Antiviral activity against HBV in adriamycin-resistant HepD2 cells with RTM20V and RTV180M mutation assessed as inhibition of viral DNA replication; type: functional, organism-based
Hepatitis B virus [14] = experiment: Antiviral activity against HBV in mouse ayw wild type HBV-Met cells assessed as inhibition of viral DNA replication; type: functional, organism-based
Hepatitis B virus [15] = experiment: Antiviral activity against HBV in human HepG2(2.2.15) cells assessed as inhibition of viral pre-genomic RNA replication; type: functional, organism-based
Hepatitis B virus [16] = experiment: Antiviral activity against HBV in human HepW10 cells assessed as inhibition of viral pre genomic RNA replication; type: functional, organism-based
Hepatitis B virus [17] = experiment: Antiviral activity against HBV in human HepD2 cells assessed as inhibition of viral pre genomic RNA replication; type: functional, organism-based
Hepatitis B virus [18] = experiment: Antiviral activity against HBV in HBV-Met cells assessed as inhibition of viral pre genomic RNA replication; type: functional, organism-based
Hepatitis B virus [19] = experiment: Antiviral activity against HBV in human HepG2(2.2.15) cells assessed as inhibition of viral 2.4/2.1RNA replication; type: functional, organism-based
Hepatitis B virus [20] = experiment: Antiviral activity against HBV in human HepW10 cells assessed as inhibition of viral 2.4/2.1RNA replication; type: functional, organism-based
Hepatitis B virus [21] = experiment: Antiviral activity against HBV in human HepD2 cells assessed as inhibition of viral 2.4/2.1RNA replication; type: functional, organism-based
Hepatitis B virus [22] = experiment: Antiviral activity against HBV in mouse HBV-Met cells assessed as inhibition of viral 2.4/2.1RNA replication; type: functional, organism-based
[23] = Cytotoxicity against HBV transfected human ayw wild type HepG2(2.2.15) cells by MTT assay; type: cell-based; conditions: HBV-transfected ayw wild type HepG2(2.2.15) cells
[24] = Cytotoxicity against HBV transfected human adriamycin-resistant wild type HepW10 cells by MTT assay; type: cell-based
[25] = Cytotoxicity against HBV transfected human adriamycin-resistant HepD2 cells with RTM20V and RTV180M mutation by MTT assay; type: cell-based
[26] = Cytotoxicity against HBV transfected human HepG2 cells by MTT assay; type: cell-based
Hepatitis B virus [27] = experiment: Effect on virus RNA stability on doxycyclin-induced HBV pre genomic RNA production in Met-On-TRE HBV cells treated with 0.3 uM drug after doxycycline removal; type: functional, organism-based
Hepatitis B virus [28] = experiment: Effect on HBV viral core protein degradation on cyclohexamide terminated cellular protein synthesis in human HepG2(2.2.15) cells at 0.3 uM; type: functional, organism-based
Hepatitis B virus [29] = experiment: Inhibition of HBV promoter in human HepG2(2.2.15) cells by luciferase reporter gene assay; type: functional, organism-based
Hepatitis B virus [30] = experiment: Inhibition of HBV promoter in human HepG2 cells by luciferase reporter gene assay; type: functional, organism-based
Cytomegalovirus = experiment: Inhibition of CMV promoter in human HepG2(2.2.15) cells by luciferase reporter gene assay after 16 to 24 hrs; type: functional, organism-based; conditions: TDE = time-dependent effect
HepG2 2.2.15 [31] = experiment: Decrease in binding of HBV promoter preC/C-EnhII to human HNF4-1 in HepG2(2.2.15) cells; type: cell-based
HepG2 2.2.15 [32] = experiment: Decrease in binding of HBV promoter preC/C-EnhII to human HNF4-2 in HepG2(2.2.15) cells; type: cell-based
HepG2 2.2.15 [33] = experiment: Decrease in binding of HBV promoter preC/C-EnhII to human HNF3 in HepG2(2.2.15) cells; type: cell-based
HepG2 2.2.15 [34] = experiment: Decrease in binding of HBV promoter preC/C-EnhII to human FTF in HepG2(2.2.15) cells; type: cell-based
HepG2 [35] = experiment: Decrease in binding of HBV promoter preC/C-EnhII to HNF4-1 in human HepG2 cells; type: cell-based
HepG2 [36] = experiment: Decrease in binding of HBV promoter preC/C-EnhII to HNF4-2 in human HepG2 cells; type: cell-based
HepG2 [37] = experiment: Decrease in binding of HBV promoter preC/C-EnhII to HNF3 in human HepG2 cells; type: cell-based
HepG2 [38] = experiment: Decrease in binding of HBV promoter preC/C-EnhII to FTF2 in human HepG2 cells; type: cell-based
Hepatitis B virus [39] = experiment: Effect on virus RNA stability on doxycyclin-induced HBV pre genomic RNA production in Met-On-TRE HBV cells treated with 3 uM drug after doxycycline removal; type: functional, organism-based

With O=c1[nH][nH]c(=O)c2c(-c3ccc4c(c3)OCO4)c3c4c(ccc3cc12)OCO4 the Activity [1] was “Active”, the Activity (HepG2 [2]) was “inactive” and the Activity [3] was “Active”. For the same compound, the Activity (HepG2 [4]) was “Active”, the Activity [5] was “inactive” and the Activity (Hepatitis B virus [6]) was “Active”. For the same compound, the Activity (Hepatitis B virus [7]) was “Active”, the IC50 (Hepatitis C virus) was 10000 nM and the IC50 [8] was 15000 nM. The IC50 (Human alphaherpesvirus 1) was 1200 nM, the IC50 (Human gammaherpesvirus 4) was over 25000 nM and the IC50 (human papillomavirus 11) was 5800 nM. For the same compound, the IC50 (Hepatitis B virus [9]) was 100 nM, the Activity (Hepatitis B virus [10]) was “Active” and the IC50 (Hepatitis B virus [11]) was 80 nM. The IC50 (Hepatitis B virus [12]) was 200 nM, the IC50 (Hepatitis B virus [13]) was 30 nM and the IC50 (Hepatitis B virus [14]) was 300 nM. For the same compound, the IC50 (Hepatitis B virus [15]) was 300 nM, the IC50 (Hepatitis B virus [16]) was 400 nM and the IC50 (Hepatitis B virus [17]) was 90 nM. It also gave an IC50 (Hepatitis B virus [18]) of 500 nM, an IC50 (Hepatitis B virus [19]) of 900 nM and an IC50 (Hepatitis B virus [20]) of over 3000 nM. It also gave an IC50 (Hepatitis B virus [21]) of 1500 nM, an IC50 (Hepatitis B virus [22]) of 1000 nM and a CC50 [23] of 9000 nM. The CC50 [24] was 13000 nM, the CC50 [25] was 12000 nM and the CC50 [26] was 29000 nM. The Activity (Hepatitis B virus [27]) was “inactive”, the Activity (Hepatitis B virus [28]) was “inactive” and the IC50 (Hepatitis B virus [29]) was 80 nM. For the same compound, the IC50 (Hepatitis B virus [30]) was over 1000 nM, the Activity (Cytomegalovirus) was “tde” and the Activity (HepG2 2.2.15 [31]) was “Active”. The Activity (HepG2 2.2.15 [32]) was “Active”, the Activity (HepG2 2.2.15 [33]) was “Active” and the Activity (HepG2 2.2.15 [34]) was “Active”. The Activity (HepG2 [35]) was “inactive”, the Activity (HepG2 [36]) was “inactive” and the Activity (HepG2 [37]) was “inactive”. The Activity (HepG2 [38]) was “Active”.

O=C1NCc2c1cc1ccc3c(c1c2-c1ccc2c(c1)OCO2)OCO3 gave an IC50 (Hepatitis C virus) of 1000 nM, an IC50 [8] of 4000 nM and an IC50 (Human alphaherpesvirus 1) of 290 nM. For the same compound, the IC50 (Human gammaherpesvirus 4) was 11000 nM, the IC50 (human papillomavirus 11) was 200 nM and the IC50 (Hepatitis B virus [9]) was 80 nM. The IC50 (Hepatitis B virus [29]) was 80 nM and the IC50 (Hepatitis B virus [30]) was over 1000 nM.

For Nc1ccn([C@@H]2CS[C@H](CO)O2)c(=O)n1 [LAMIVUDINE], the IC50 (Hepatitis B virus [11]) was 50 nM, the IC50 (Hepatitis B virus [12]) was 100 nM and the IC50 (Hepatitis B virus [13]) was over 3000 nM. The IC50 (Hepatitis B virus [14]) was 200 nM, the Activity (Hepatitis B virus [15]) was “inactive” and the Activity (Hepatitis B virus [16]) was “inactive”. For the same compound, the Activity (Hepatitis B virus [17]) was “inactive”, the Activity (Hepatitis B virus [18]) was “inactive” and the Activity (Hepatitis B virus [19]) was “inactive”. The Activity (Hepatitis B virus [20]) was “inactive”, the Activity (Hepatitis B virus [21]) was “inactive” and the Activity (Hepatitis B virus [22]) was “inactive”. The CC50 [23] was over 100000 nM, the CC50 [24] was over 100000 nM and the CC50 [25] was over 100000 nM. The CC50 [26] was 100000 nM, the Activity (Hepatitis B virus [39]) was “inactive” and the IC50 (Hepatitis B virus [29]) was 80 nM. For the same compound, the IC50 (Hepatitis B virus [30]) was over 1000 nM.
